Source: ChEMBL document CHEMBL4483862, “Open-source discovery of chemical leads for next-generation chemoprotective antimalarials” (2018)

Test system: Plasmodium berghei
Experiment: Luciferase/luciferin-expressing antifolate-resistant parasites were used to infect a culture of HepG2 cells that were pre-incubated with compounds. Infected hepatocytes emit light due to the luciferase reaction. Assay results are presented as the percent inhibition of light emission compared to control. […]
Type: functional
Conditions: sporozoite; for IC90: read-out: LUCIFERASE INFECTION ASSAY - IC90
[1] = read-out: LUCIFERASE INFECTION ASSAY - IC50

| SMILES | IC90 | IC50 [1] | further results |
| --- | --- | --- | --- |
| Cc1ccc(C)c(-n2c(SC(C)c3nc(N)nc(N(C)C)n3)nc3ccccc3c2=O)c1 (stereo unspecified) | > 10 µM | – | IC50 (FFLUC_HILL_SLOPE 0.719, FFLUC_R_SQUARED 0.145, PBLUC_HILL_SLOPE 15.9, PBLUC_R_SQUARED 0.219, read-out: LUCIFERASE INFECTION ASSAY - IC50): 9.47 µM |
| COc1ccc(N/N=C2\C=CC(=O)c3ncccc32)cc1 | > 10 µM | – | IC50 (HEPG2TOX_HILL_SLOPE 8.38, HEPG2TOX_R_SQUARED 0.289, PBLUC_HILL_SLOPE 16, PBLUC_R_SQUARED 0.427, read-out: LUCIFERASE INFECTION ASSAY - IC50): 9.1 µM |
| Clc1ccccc1CNc1ncnc2ccsc12 | > 10 µM | > 10 µM | – |
| CC(C)n1ncc2cc(C(=O)Nc3nc(-c4cccnc4)cs3)cnc21 | > 10 µM | – | IC50 (HEPG2TOX_HILL_SLOPE 1.63, HEPG2TOX_R_SQUARED 0.918, read-out: LUCIFERASE INFECTION ASSAY - IC50): > 10 µM |
| COCc1[nH]n2c3cccc(=O)c-3nnc2c1-c1ccccc1 | 8.25 µM | – | IC50 (HEPG2TOX_HILL_SLOPE 2.72, HEPG2TOX_R_SQUARED 0.697, PBLUC_HILL_SLOPE 5.05, PBLUC_R_SQUARED 0.588, read-out: LUCIFERASE INFECTION ASSAY - IC50): 5.34 µM |
| Cc1cc(NCc2cccnc2)n2nc(C(F)(F)F)c(-c3ccccc3)c2n1 | > 8.61 µM | 7.83 µM | – |
| O=c1[nH][nH]c(-c2ccccc2)c1C=NCc1cccc(C(F)(F)F)c1 | > 9.56 µM | – | IC50 (HEPG2TOX_HILL_SLOPE 6.09, HEPG2TOX_R_SQUARED 0.916, PBLUC_HILL_SLOPE 3.54, PBLUC_R_SQUARED 0.303, read-out: LUCIFERASE INFECTION ASSAY - IC50): 7.61 µM |
| Cn1c(SCC(=O)NC2CCCc3ccccc32)nnc1-c1cccnc1 (stereo unspecified) | > 10 µM | – | IC50 (PBLUC_HILL_SLOPE 11.1, PBLUC_R_SQUARED 0.239, read-out: LUCIFERASE INFECTION ASSAY - IC50): 8.8 µM |
| Cc1ccc2c(Cl)cc(Cl)c(OCC(=O)NC3CCCCC3C)c2n1 (stereo unspecified) | > 10 µM | > 10 µM | – |
| COc1ccc(-c2cn3c(-c4cccc(O)c4)cnc3cn2)cn1 | > 10.4 µM | > 10.4 µM | – |
| COc1ccc(/C=C(/C(=O)c2cccs2)N2C=CC=CC2=C(C#N)C#N)cc1 | > 10 µM | > 10 µM | – |
| Cc1cc(C(=O)COC(=O)c2ccccc2O)c(C)n1CC1CCCO1 (stereo unspecified) | 7.71 µM | – | IC50 (PBLUC_HILL_SLOPE 2.39, PBLUC_R_SQUARED 0.567, read-out: LUCIFERASE INFECTION ASSAY - IC50): 3.08 µM |
| Cn1c(Nc2ccccc2)nc2cnc(-c3cccc4ccccc34)cc21 | 4.66 µM | – | IC50 (HEPG2TOX_HILL_SLOPE 1.56, HEPG2TOX_R_SQUARED 0.963, PBLUC_HILL_SLOPE 1.41, PBLUC_R_SQUARED 0.827, read-out: LUCIFERASE INFECTION ASSAY - IC50): 0.98 µM |
| O=C(NCCOc1ccc(Cl)cc1)c1ccc(=O)n(Cc2ccccc2)n1 | > 10 µM | > 10 µM | – |
| CC(C)c1ccc(C(=O)CSc2nc(N)cc(N)n2)c(C(C)C)c1 | > 10 µM | – | IC50 (PBLUC_HILL_SLOPE 15.6, PBLUC_R_SQUARED 0.415, read-out: LUCIFERASE INFECTION ASSAY - IC50): 9.92 µM |
| CC1(C)CC(=O)C=C(SCCS(=O)(=O)c2ccc(Cl)cc2)S1 | > 8.75 µM | > 8.75 µM | – |
| Cc1ccc(SC(=O)c2c(C)noc2-c2ccc(Cl)cc2)cc1 | > 9.6 µM | – | IC50 (HEPG2TOX_HILL_SLOPE 11.7, HEPG2TOX_R_SQUARED 0.856, PBLUC_HILL_SLOPE 3.58, PBLUC_R_SQUARED 0.522, read-out: LUCIFERASE INFECTION ASSAY - IC50): 7.62 µM |
| Cc1cc(C)n2cc(CN(C)Cc3ccccc3)nc2n1 | > 10 µM | > 10 µM | – |
| Cc1cc2oc(=O)cc(CN3CCN(S(=O)(=O)c4ccc([N+](=O)[O-])cc4)CC3)c2cc1Cl | 8.57 µM | 4.19 µM | – |
| COC(=O)c1cccc2c1CCCN2C(=O)CCN1C(=O)C2CCCCC2C1=O (stereo unspecified) | > 10 µM | > 10 µM | – |
| NCc1cccc(-c2cc(-c3cc(C(F)(F)F)cc(C(F)(F)F)c3)cnc2N)c1 | > 8.02 µM | – | IC50 (FFLUC_HILL_SLOPE 0.255, FFLUC_R_SQUARED 0.011, PBLUC_HILL_SLOPE 2.95, PBLUC_R_SQUARED 0.223, read-out: LUCIFERASE INFECTION ASSAY - IC50): 7.98 µM |
| O=C(COC(=O)c1ccccc1NCCO)NC1c2ccccc2-c2ccccc21 | 4.07 µM | – | IC50 (FFLUC_HILL_SLOPE 129, FFLUC_R_SQUARED 0.809, HEPG2TOX_HILL_SLOPE 1.96, HEPG2TOX_R_SQUARED 0.833, PBLUC_HILL_SLOPE 15.2, PBLUC_R_SQUARED 0.28, read-out: LUCIFERASE INFECTION ASSAY - IC50): 3.52 µM |

| SMILES | IC90 | IC50 [1] | further results |
| --- | --- | --- | --- |
| CC(=O)Nc1ccc(-c2ccnc3c2CC(C(=O)Nc2cccc(C(F)(F)F)c2)O3)cc1 (stereo unspecified) | > 7.48 µM | 4.23 µM | – |
| Cc1ccc(-n2[nH]c(C)c(C=Nc3ccc(OC(F)(F)F)cc3)c2=O)cc1 | > 8.79 µM | – | IC50 (PBLUC_HILL_SLOPE 2.73, PBLUC_R_SQUARED 0.732, read-out: LUCIFERASE INFECTION ASSAY - IC50): 4.57 µM |
| NC(=O)c1cc(-c2csc(NC(=O)Cc3ccc(Cl)c(Cl)c3)n2)c[nH]1 | > 10 µM | – | IC50 (FFLUC_HILL_SLOPE 1.47, FFLUC_R_SQUARED 0.0625, read-out: LUCIFERASE INFECTION ASSAY - IC50): > 10 µM |
| CCOc1cc2c(cc1CNC(=O)Cn1cnc3c(cnn3-c3ccccc3)c1=O)OC(C)C2 (stereo unspecified) | > 10 µM | – | IC50 (FFLUC_HILL_SLOPE 95.3, FFLUC_R_SQUARED 0.504, HEPG2TOX_HILL_SLOPE 1.9, HEPG2TOX_R_SQUARED 0.749, read-out: LUCIFERASE INFECTION ASSAY - IC50): > 10 µM |
| Cc1ccc(C(=O)C(c2ccc(C)cc2)N2C(=O)NC(C)(c3ccccc3)C2=O)cc1 (stereo unspecified) | > 10 µM | – | IC50 (FFLUC_HILL_SLOPE 10.4, FFLUC_R_SQUARED 0.468, read-out: LUCIFERASE INFECTION ASSAY - IC50): > 10 µM |
| CS/C(Nc1cccc(C(F)(F)F)c1)=C(/C#N)S(=O)(=O)c1ccc(Cl)cc1 | > 7.62 µM | – | IC50 (FFLUC_HILL_SLOPE 30.1, FFLUC_R_SQUARED 0.771, HEPG2TOX_HILL_SLOPE 1.92, HEPG2TOX_R_SQUARED 0.988, PBLUC_HILL_SLOPE 2.74, PBLUC_R_SQUARED 0.0319, read-out: LUCIFERASE INFECTION ASSAY - IC50): 4.34 µM |
| COc1cc(NC(=O)N2CCc3nc(NCc4cccc(Oc5ccccc5)c4)ncc3C2)cc(OC)c1OC | > 6.09 µM | – | IC50 (HEPG2TOX_HILL_SLOPE 6.86, HEPG2TOX_R_SQUARED 0.395, PBLUC_HILL_SLOPE 8.32, PBLUC_R_SQUARED 0.196, read-out: LUCIFERASE INFECTION ASSAY - IC50): 5.31 µM |
| CC(C)N(C(=O)CSc1ccc(F)c(F)c1)c1ccc(Nc2ccccc2)cc1 | 6.35 µM | – | IC50 (PBLUC_HILL_SLOPE 46.2, PBLUC_R_SQUARED 0.0491, read-out: LUCIFERASE INFECTION ASSAY - IC50): 6.06 µM |
| N#Cc1ccc(-c2csc(CS(=O)(=O)Cc3cccc(C(F)(F)F)c3)n2)cc1 | > 7.81 µM | > 7.81 µM | – |
| CCCNC(=O)CN1CCN(c2nc(-c3cccs3)nc3sc(C)c(C)c23)CC1 | > 10 µM | – | IC50 (PBLUC_HILL_SLOPE 12.5, PBLUC_R_SQUARED 0.18, read-out: LUCIFERASE INFECTION ASSAY - IC50): 9.45 µM |
| c1ccc(C2(c3ccccc3)CC2(c2ccccc2)c2ccccc2)cc1 | 8.97 µM | – | IC50 (FFLUC_HILL_SLOPE 10.4, FFLUC_R_SQUARED 0.239, PBLUC_HILL_SLOPE 23.3, PBLUC_R_SQUARED 0.151, read-out: LUCIFERASE INFECTION ASSAY - IC50): 8.16 µM |
| O=C(c1cccc(C(F)(F)F)c1)N1CCc2c([nH]c3ccccc23)C1C(F)(F)F (stereo unspecified) | > 8 µM | – | IC50 (FFLUC_HILL_SLOPE 6.83, FFLUC_R_SQUARED 0.392, HEPG2TOX_HILL_SLOPE 7.06, HEPG2TOX_R_SQUARED 0.861, PBLUC_HILL_SLOPE 3.46, PBLUC_R_SQUARED 0.38, read-out: LUCIFERASE INFECTION ASSAY - IC50): 4.59 µM |
| Cc1ccc(Sc2ccc(NC(=S)NCC3CCCO3)cc2)c(C)c1 (stereo unspecified) | > 10 µM | – | IC50 (PBLUC_HILL_SLOPE 9.48, PBLUC_R_SQUARED 0.239, read-out: LUCIFERASE INFECTION ASSAY - IC50): 8.41 µM |
| COc1ccccc1-n1cnnc1SCC(=O)NC(C)c1ccc(CC(C)C)cc1 (stereo unspecified) | > 10 µM | > 10 µM | – |
| CCO/C=N\C1=C(C#N)C(c2ccc(OC)cc2)c2ccc3ccccc3c2O1 (stereo unspecified) | > 8.58 µM | – | IC50 (HEPG2TOX_HILL_SLOPE 1.86, HEPG2TOX_R_SQUARED 0.624, read-out: LUCIFERASE INFECTION ASSAY - IC50): > 8.58 µM |
| C/C(=N\OCc1ccccc1)c1cc(-c2ccccc2)c(C(F)(F)F)s1 | > 8.79 µM | – | IC50 (PBLUC_HILL_SLOPE 1.7, PBLUC_R_SQUARED 0.604, read-out: LUCIFERASE INFECTION ASSAY - IC50): 4.91 µM |
| CCN(CC)CCNc1cc(-c2cccs2)nc2ccccc12 | > 10.1 µM | – | IC50 (PBLUC_HILL_SLOPE 1.7, PBLUC_R_SQUARED 0.474, read-out: LUCIFERASE INFECTION ASSAY - IC50): 3.96 µM |
| COc1ccc(CNC(=O)NC2CCCCCCC2)cn1 | > 10 µM | > 10 µM | – |
| CC(C)(C)C1CCc2nc3ccccc3c(C(=O)OCC(=O)c3ccc(Cl)s3)c2C1 (stereo unspecified) | > 10 µM | > 10 µM | – |
| O=C(C(Sc1nc2cc(S(=O)(=O)N3CCCCC3)ccc2o1)c1ccccc1)N1CCCCC1 (stereo unspecified) | > 10 µM | – | IC50 (HEPG2TOX_HILL_SLOPE 0.777, HEPG2TOX_R_SQUARED 0.137, read-out: LUCIFERASE INFECTION ASSAY - IC50): > 10 µM |
| Cn1c(Nc2ccccc2)nc2cnc(-c3ccc(F)c(Cl)c3)cc21 | > 10 µM | – | IC50 (PBLUC_HILL_SLOPE 3.09, PBLUC_R_SQUARED 0.397, read-out: LUCIFERASE INFECTION ASSAY - IC50): 7.42 µM |
